Reference: the supplement of paper PMC11997997

Legend:
[1] = test system: Mycobacterium tuberculosis CDC1551 (intracellular, in murine BMDM); test: area under intracellular growth-inhibition dose-response curve (AUC (% inhibition x dose, relative)); higher = more potent; conditions: duration: 6 days; dose range: 0.13-80 uM, 8 points
Summary of the method: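 Macrophages derived from primary murine bone marrow were infected for 1 h at multiplicity of infection 1 with luciferase-expressing M. tuberculosis CDC1551, then treated for 6 days at final concentrations of 80–0.13 μM. Bright-Glo luciferin signal, normalised to a reference drug control and the lowest-concentration wells, gave the growth readout. Area under the growth-inhibition dose–response curve was then calculated in GraphPad Prism.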

[2] = test system: murine bone marrow-derived macrophages; test: area under cytotoxicity dose-response curve (AUC (% cytotoxicity x dose, relative)); higher = more cytotoxic; conditions: duration: 6 days; dose range: 0.13-80 uM, 8 points
Summary of the method: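 Primary murine bone marrow-derived macrophages in opaque 384-well plates were exposed to an 8-point, 2.5-fold dilution series (final 80–0.13 μM) for 6 days at 37 °C in 5% CO2. Viability was read with Promega's CellTiter-Glo luminescence assay, and percent cytotoxicity was normalised to vehicle and positive control wells. Cytotoxicity is reported as the area under the dose–response curve, calculated in GraphPad Prism version 10.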

Structure (SMILES): c1csc(Cc2nn3c(-c4[nH]nc5c4CCC5)nnc3s2)c1
- area under intracellular growth-inhibition dose-response curve [1]: 251
- area under cytotoxicity dose-response curve [2]: 44.4

Structure (SMILES): NC(=S)N/N=C/c1ccc(Br)o1
- area under intracellular growth-inhibition dose-response curve [1]: 246
- area under cytotoxicity dose-response curve [2]: 3.81

Structure (SMILES): CCOc1ccc2oc(C(=O)OCC(=O)NCc3ccc(OC)cc3)c(C)c2c1
- area under intracellular growth-inhibition dose-response curve [1]: 58.1
- area under cytotoxicity dose-response curve [2]: < 0

Structure (SMILES): CC(C)(C)c1csc(N/N=C/c2ccc(O)cc2)n1
- area under intracellular growth-inhibition dose-response curve [1]: 235
- area under cytotoxicity dose-response curve [2]: 19.1

Structure (SMILES): COc1cc(/C=N/NC(N)=S)ccc1OCC(=O)Nc1ccc(C)c(C)c1
- area under intracellular growth-inhibition dose-response curve [1]: 242
- area under cytotoxicity dose-response curve [2]: 10.1

Structure (SMILES): Cc1ccccc1CNC(=O)c1ccccc1
- area under intracellular growth-inhibition dose-response curve [1]: 213
- area under cytotoxicity dose-response curve [2]: 38.3

Structure (SMILES): O=C(CC12CC3CC(CC(C3)C1)C2)NCc1ccco1
- area under intracellular growth-inhibition dose-response curve [1]: 224
- area under cytotoxicity dose-response curve [2]: 60.5

Structure (SMILES): O=C(/C=C/c1ccc([N+](=O)[O-])o1)NNC(=O)c1ccc(F)cc1
- area under intracellular growth-inhibition dose-response curve [1]: 19.6
- area under cytotoxicity dose-response curve [2]: 51.9

Structure (SMILES): C#CCSc1nnc(-c2ccc([N+](=O)[O-])cc2)o1
- area under intracellular growth-inhibition dose-response curve [1]: 246
- area under cytotoxicity dose-response curve [2]: < 0

Structure (SMILES): CN(C)S(=O)(=O)c1ccc(C(=O)OCC(=O)NC(=O)NC2CCCC2)cc1
- area under intracellular growth-inhibition dose-response curve [1]: 165
- area under cytotoxicity dose-response curve [2]: < 0

Structure (SMILES): CCOc1ccccc1NC(=O)c1ccc2[nH]c(C)c(C)c2c1
- area under intracellular growth-inhibition dose-response curve [1]: 192
- area under cytotoxicity dose-response curve [2]: 6.53

Structure (SMILES): O=C(CSc1nc2ccccc2nc1N1CCOCC1)N1CCN(c2ccccc2)CC1
- area under intracellular growth-inhibition dose-response curve [1]: 199
- area under cytotoxicity dose-response curve [2]: 22.9

Structure (SMILES): O=C(CCC1CCCC1)NCc1cccs1
- area under intracellular growth-inhibition dose-response curve [1]: 198
- area under cytotoxicity dose-response curve [2]: 42.7

Structure (SMILES): Cc1cc2oc(=O)cc(-c3ccccc3)c2c(C)c1-c1ccc(C#N)cc1
- area under intracellular growth-inhibition dose-response curve [1]: 272
- area under cytotoxicity dose-response curve [2]: 110

Structure (SMILES): CC(C)CCNC(=O)CSc1nc(O)c2ccccc2n1
- area under intracellular growth-inhibition dose-response curve [1]: 27.8
- area under cytotoxicity dose-response curve [2]: 40.4

Structure (SMILES): Cc1ccc(NC(=O)NC2CCCCCCC2)cc1C
- area under intracellular growth-inhibition dose-response curve [1]: 230
- area under cytotoxicity dose-response curve [2]: 89

Structure (SMILES): C/C(=N/NC(=O)c1ccncc1)c1ccc2c(c1)OCO2
- area under intracellular growth-inhibition dose-response curve [1]: 257
- area under cytotoxicity dose-response curve [2]: 13.8

Structure (SMILES): Br.COc1ccc(C2=CSC(/N=C/c3ccc(F)cc3)=NN2)cc1
- area under intracellular growth-inhibition dose-response curve [1]: 182
- area under cytotoxicity dose-response curve [2]: 49.1

Structure (SMILES): CCOC(=O)c1cn(Cc2cccc(C)c2)nn1
- area under intracellular growth-inhibition dose-response curve [1]: 98.1
- area under cytotoxicity dose-response curve [2]: 56.6

Structure (SMILES): CCOC(=O)c1ccccc1NC(=O)c1c(F)c(F)c(F)c(F)c1F
- area under intracellular growth-inhibition dose-response curve [1]: 183
- area under cytotoxicity dose-response curve [2]: < 0

Structure (SMILES): Cc1ccc(-n2c(C)cc(/C=N/NC(N)=S)c2C)cc1
- area under intracellular growth-inhibition dose-response curve [1]: 233
- area under cytotoxicity dose-response curve [2]: 26

Structure (SMILES): S=C(Nc1ccc(Oc2ccccc2)cc1)NC1CCCCCC1
- area under intracellular growth-inhibition dose-response curve [1]: 155
- area under cytotoxicity dose-response curve [2]: 210

Structure (SMILES): Br.CCCc1cc(-c2nc(-c3ccc(C)cc3)cs2)ccn1
- area under intracellular growth-inhibition dose-response curve [1]: 80.7
- area under cytotoxicity dose-response curve [2]: 45.6

Structure (SMILES): O=C(NC1CCCCCCC1)c1ccc(Br)o1
- area under intracellular growth-inhibition dose-response curve [1]: 251
- area under cytotoxicity dose-response curve [2]: 38.5

Structure (SMILES): CC1CCCN(c2ccc([N+](=O)[O-])s2)C1 (stereo not given)
- area under intracellular growth-inhibition dose-response curve [1]: 241
- area under cytotoxicity dose-response curve [2]: < 0

Structure (SMILES): O=C(CCC1CCCCC1)NCc1ccccn1
- area under intracellular growth-inhibition dose-response curve [1]: 222
- area under cytotoxicity dose-response curve [2]: 3

Structure (SMILES): O=C(/C=C/c1ccc(S(=O)(=O)N2CCOCC2)cc1)NCCc1ccc(C(F)(F)F)cc1
- area under intracellular growth-inhibition dose-response curve [1]: 102
- area under cytotoxicity dose-response curve [2]: 42

Structure (SMILES): O=C(NCc1ccco1)c1cc2ccccc2o1
- area under intracellular growth-inhibition dose-response curve [1]: 105
- area under cytotoxicity dose-response curve [2]: 135

Structure (SMILES): Cc1ccc(S(=O)(=O)N2CCOCC2)cc1C(=O)OCC(=O)NC1CC1
- area under intracellular growth-inhibition dose-response curve [1]: 97.3
- area under cytotoxicity dose-response curve [2]: 7.09

Structure (SMILES): O=C(COC(=O)c1ccccc1NCCO)NCC1CCCCC1
- area under intracellular growth-inhibition dose-response curve [1]: 151
- area under cytotoxicity dose-response curve [2]: 58.4

Structure (SMILES): O=C(OCC(=O)c1ccc(Cl)cc1Cl)c1ccccn1
- area under intracellular growth-inhibition dose-response curve [1]: 205
- area under cytotoxicity dose-response curve [2]: 10.1

Structure (SMILES): On1c(-c2ccccc2)nc2ccccc21
- area under intracellular growth-inhibition dose-response curve [1]: 28.6
- area under cytotoxicity dose-response curve [2]: < 0

Structure (SMILES): NC(=S)N/N=C/c1ccc(-n2nncc2-c2ccc(Cl)cc2)cc1
- area under intracellular growth-inhibition dose-response curve [1]: 216
- area under cytotoxicity dose-response curve [2]: 47.7

Structure (SMILES): Nc1c2c(nc3sc4c(c13)CCCCC4)CCCC2
- area under intracellular growth-inhibition dose-response curve [1]: 171
- area under cytotoxicity dose-response curve [2]: 14.6

Structure (SMILES): Brc1ccc(-[n+]2c(-c3ccccc3)cc(-c3ccccc3)cc2-c2ccccc2)cc1.[O-][Cl+3]([O-])([O-])[O-]
- area under intracellular growth-inhibition dose-response curve [1]: 70.1
- area under cytotoxicity dose-response curve [2]: 14.7

Structure (SMILES): CCCCCC(=O)N1CCCC1
- area under intracellular growth-inhibition dose-response curve [1]: 139
- area under cytotoxicity dose-response curve [2]: 20.6

Structure (SMILES): CC(/C=C/c1ccccc1)=N\NC(N)=S
- area under intracellular growth-inhibition dose-response curve [1]: 266
- area under cytotoxicity dose-response curve [2]: 31.1

Structure (SMILES): Cc1cc(O)c2c(n1)c(C)cc1[nH]c(C)c(C)c12
- area under intracellular growth-inhibition dose-response curve [1]: 137
- area under cytotoxicity dose-response curve [2]: < 0

Structure (SMILES): C/C(Cn1cnc([N+](=O)[O-])n1)=N/NC(=O)COc1c(Cl)cc(Cl)cc1Cl
- area under intracellular growth-inhibition dose-response curve [1]: 196
- area under cytotoxicity dose-response curve [2]: < 0

Structure (SMILES): CC[N+](C)(CC)CCCCOc1ccc2c(c1)C(=O)c1cc(OCCCC[N+](C)(CC)CC)ccc1-2.[I-]
- area under intracellular growth-inhibition dose-response curve [1]: 175
- area under cytotoxicity dose-response curve [2]: 51.3

Structure (SMILES): CCCCNC(=O)Cc1ccc(C)cc1
- area under intracellular growth-inhibition dose-response curve [1]: 115
- area under cytotoxicity dose-response curve [2]: 80.9

Structure (SMILES): CCN1/C(=C/C(C)=C/c2sc3ccccc3[n+]2CC)Sc2ccccc21.[I-]
- area under intracellular growth-inhibition dose-response curve [1]: 138
- area under cytotoxicity dose-response curve [2]: 94.9

Structure (SMILES): CC(NC(=O)c1ccccc1F)c1ccccc1 (stereo not given)
- area under intracellular growth-inhibition dose-response curve [1]: 95.2
- area under cytotoxicity dose-response curve [2]: 53.4

Structure (SMILES): CC1CCCN(C(=O)C2CCC(CNc3c(N4CCCCC4)c(=O)c3=O)CC2)C1 (stereo not given)
- area under intracellular growth-inhibition dose-response curve [1]: 91.7
- area under cytotoxicity dose-response curve [2]: 8.75

Structure (SMILES): CS(=O)(=O)c1ccc([C@@H](O)[C@@H](CF)NC(=O)C(Cl)Cl)cc1
- area under intracellular growth-inhibition dose-response curve [1]: 78.9
- area under cytotoxicity dose-response curve [2]: 62.1

Structure (SMILES): O=C(N/N=C/c1ccc([N+](=O)[O-])o1)c1cc2ccccc2o1
- area under intracellular growth-inhibition dose-response curve [1]: 106
- area under cytotoxicity dose-response curve [2]: 43.2

Structure (SMILES): O=C(NCCC1=CCCCC1)c1ccc(F)cc1
- area under intracellular growth-inhibition dose-response curve [1]: 122
- area under cytotoxicity dose-response curve [2]: 3.13

Structure (SMILES): CN(Cc1ccccc1)c1ccc2nnc(-c3ccccc3)n2n1
- area under intracellular growth-inhibition dose-response curve [1]: 169
- area under cytotoxicity dose-response curve [2]: < 0

Structure (SMILES): Cc1[nH]c2ccccc2c1C(=O)C(C)OC(=O)c1ccc([N+](=O)[O-])o1 (stereo not given)
- area under intracellular growth-inhibition dose-response curve [1]: 3.96
- area under cytotoxicity dose-response curve [2]: < 0

Structure (SMILES): CCCC(C)NC(=O)c1ccc(F)cc1 (stereo not given)
- area under intracellular growth-inhibition dose-response curve [1]: 248
- area under cytotoxicity dose-response curve [2]: 4.45

Structure (SMILES): CC1CCc2nc3sc4c(c3c(N)c2C1)CCCC4 (stereo not given)
- area under intracellular growth-inhibition dose-response curve [1]: 174
- area under cytotoxicity dose-response curve [2]: 58.3

Structure (SMILES): O=C(/C=C/c1cccs1)N1CCCC1
- area under intracellular growth-inhibition dose-response curve [1]: 168
- area under cytotoxicity dose-response curve [2]: 3.62

Structure (SMILES): O=C(CCCOc1ccc(Br)cc1)NNC(=O)c1ccncc1
- area under intracellular growth-inhibition dose-response curve [1]: 256
- area under cytotoxicity dose-response curve [2]: 24.1

Structure (SMILES): CCCc1cc(C(=O)NCc2cccs2)no1
- area under intracellular growth-inhibition dose-response curve [1]: 192
- area under cytotoxicity dose-response curve [2]: < 0

Structure (SMILES): C/C(CC(=O)Nc1ccc(C)c(Cl)c1)=N\NC(=O)c1ccncc1
- area under intracellular growth-inhibition dose-response curve [1]: 272
- area under cytotoxicity dose-response curve [2]: < 0

Structure (SMILES): CN(CC(=O)Nc1ccc(OC(F)(F)F)cc1)C(=O)c1ccc(N2CCCC2=O)cc1
- area under intracellular growth-inhibition dose-response curve [1]: 27.6
- area under cytotoxicity dose-response curve [2]: 36.3

Structure (SMILES): CCC(=O)NC(=S)Nc1ccc(NC(=O)c2ccco2)cc1
- area under intracellular growth-inhibition dose-response curve [1]: 233
- area under cytotoxicity dose-response curve [2]: 64.5

Structure (SMILES): Cc1ccc(C(=O)N2CCC(C)CC2)cc1C
- area under intracellular growth-inhibition dose-response curve [1]: 113
- area under cytotoxicity dose-response curve [2]: 24.4

Structure (SMILES): COc1ccc(/C=C/C(=O)c2ccc([N+](=O)[O-])o2)cc1
- area under intracellular growth-inhibition dose-response curve [1]: 162
- area under cytotoxicity dose-response curve [2]: 71.5

Structure (SMILES): CCc1ccc(NC(=O)NC2CCCCCCC2)cc1
- area under intracellular growth-inhibition dose-response curve [1]: 120
- area under cytotoxicity dose-response curve [2]: 85.4

Structure (SMILES): CC1CCC(NC(=O)c2cc3c(s2)CCCC3)CC1 (stereo not given)
- area under intracellular growth-inhibition dose-response curve [1]: 253
- area under cytotoxicity dose-response curve [2]: < 0

Structure (SMILES): N#C/C(=N\Nc1ccc(Cl)cc1)C(N)=S
- area under intracellular growth-inhibition dose-response curve [1]: 102
- area under cytotoxicity dose-response curve [2]: 16.4

Structure (SMILES): O=C(N/N=C/c1cn[nH]c1-c1ccc(F)cc1)c1ccncc1
- area under intracellular growth-inhibition dose-response curve [1]: 226
- area under cytotoxicity dose-response curve [2]: 215

Structure (SMILES): CSc1ncccc1C(=O)OCC(=O)c1ccc[nH]1
- area under intracellular growth-inhibition dose-response curve [1]: 159
- area under cytotoxicity dose-response curve [2]: < 0

Structure (SMILES): Cl.O=C(CCN1CCN(CCO)CC1)N1c2ccccc2Sc2ccc(C(F)(F)F)cc21
- area under intracellular growth-inhibition dose-response curve [1]: 61.3
- area under cytotoxicity dose-response curve [2]: 75
